Results published in US20260356834A1, “ANTICONVULSIVE COMPOUNDS AND USES THEREOF” (Jazz Pharmaceuticals Research UK Limite, priority 2023, published 2026).
“And” between values parts separate entries of the source, which are not always exact repeats. Equal values may be shown once. Read-outs that look alike come from different tables or passages of the source. Marks after values point to notes of the source that are not given here.

Experiments:
C57BL/6J mice [1] = settings: cited from earlier work
C57BL/6J mice [2] = settings: cited from earlier work; remark: listed apart in the source
C57BL/6J mice [3] = test: mouse maximal electroshock seizure threshold model using minimal sample sizes (mini-MEST); settings: 30 min post dose
Protocol: An increase in seizure threshold is indicative of an anticonvulsive effect.
The ability of a test compound to alter the stimulus intensity, expressed as current (mA), required to induce the presence of tonic hind limb extensor convulsions, is assessed in the MEST.
In the mini-MEST test, a lower n number is used.
Male C57BL/6J mice were housed in groups of 6. Mice were kept under standard conditions (12 hour light cycle; light intensity of 25-75 lux) and fed a diet of certified rodent CR 14% protein rodent diet (LabDiet® 4CR4). Mice were 8-9 weeks old at the start of the study.
Naïve mice were acclimatised to the procedure room in their home cages for up to 7 days, with food and water available ad libitum.
All animals were weighed at the beginning of the study and randomly assigned to treatment groups based on a mean distribution of body weight across groups.
The first animal within a treatment group was given a shock at the expected or estimated CC50 current. For subsequent animals, the current was lowered or raised depending on the convulsions outcome from the preceding animal in log scale intervals.
Data generated from each treatment group were used to calculate the CC50±SEM values for the treatment group.
Vehicle: (5% ethanol, 10% Solutol® (Kolliphor® HS 15), 85% saline). 1 mL of ethanol, 2 mL of Solutol™ were warmed to 60 °C, in 17 mL of 0.9% saline.
Test compounds: 5-50 mg/kg in a 1:2:17 ethanol:Solutol®:saline formulation (as used for vehicle).

C57BL/6J mice [4] = test: mouse maximal electroshock seizure threshold model (MEST); assay type: in vivo; settings: for CC50 +/− SEM: HPMC vehicle
Protocol: Vehicle=1:2:17 ethanol:Solutol® (Kolliphor® HS 15):saline: 1 mL of ethanol and 2 mL of solutol were warmed to 60 °C and 17 mL of 0.9% saline was added slowly. […]
Vehicle=0.5% HPMC and 0.1% Tween 80:0.5% HPMC and 0.1% Tween 80 in water.

RjOrl: Swiss mice = test: mouse 6 Hz (44 mA) model of partial seizures; assay type: in vivo; settings: for Mean Forelimb Clonus +/− SEM: score 0-2; for Change from vehicle (forelimb clonus): vs vehicle (HPMC)
Text: The 6 Hz (44 mA) model of partial seizures, which detects anticonvulsant activity, follows that described by Brown et al. 1953.
[…] A decrease in forelimb clonus score is indicative of protection from seizure and an anticonvulsive effect.
When conducted at a 44 mA stimulus intensity in mice, the 6 Hz test can differentiate compounds with potential for the treatment of focal-onset seizures that are often resistant to current anti-epileptic drugs.
Male RjOrl: Swiss mice (Janvier Labs, 53940 Le Genest-Saint-Isle, France), 5 weeks old, weighing 27-38 g at the beginning of the experiment. Animals were acclimatized to the Test Facility for at least 5 days after delivery and randomly housed in groups of 5 to 8 in macrolon cages on wood litter with free access to food and water.
The animal house was maintained under artificial lighting (12 hours) between 7:00 and 19:00 in a controlled ambient temperature of 22±2 °C and relative humidity between 30-70%.
Before transcorneal stimulation, a drop of tetracaine solution (1%) was applied on each eye of the mouse for local anesthesia. Between 1-10 minutes later and at the designated pre-treatment (see below), the mice were administered a rectangular current (44 mA, rectangular pulse: 0.2 ms pulse width, 3 s duration, (6 Hz) via corneal electrodes connected to a constant current shock generator (Ugo Basile: type 7801).
The results for the number of seizures as reflected by forelimb clonus were recorded immediately after current administration. Forelimb clonus was scored as absent (0=no forelimb clonus), mild (1=clonus with one forelimb) and strong (2=clonus with both forelimbs). The experimenters were blinded to the treatment. […]
The administration volume was 10 mL/kg.
Due to the number of animals tested, the experiment was divided in 2 sub-experiments on 2 consecutive days with equivalent numbers of mice per group and per sub-experiment.
Data were discrete values so considered to be non-normally distributed based on validation data, therefore non-parametric tests were utilized. Quantitative data (scores) with the test substance were analyzed by comparing test compound-treated groups with the 1:2:17 vehicle control using Kruskal-Wallis test with Dunn's multiple comparisons test when the Kruskal-Wallis test was significant. Quantitative data with the reference substance were analyzed using Mann-Whitney U test as compared to saline vehicle.

DBA/2 mice = settings: De Sarro et al., 2017; cited from earlier work

Row | Compound | CC50 +/− SEM (C57BL/6J mice [3]; 30 mg/kg i.p.) [mA] | Change from vehicle (CC50) (C57BL/6J mice [3]; 30 mg/kg i.p.) [%] | also measured
1 | picrotoxin |  |  | seizure threshold (C57BL/6J mice [1]; known convulsive agent): a reduction in seizure threshold; seizure threshold (C57BL/6J mice [2]; known convulsive agent): a reduction in seizure threshold
2 | CCC(C)(C)c1cc(O)c(-c2c(C)c(Cl)cn3ccnc23)c(O)c1 [Compound 20, 2-(6-Chloro-7-methylimidazo[1,2-a]pyridin-8-yl)-5-(tert-pentyl)benzene-1,3-diol] | 40.6 ± 1.1 | 59 | 
3 | CCC(C)(C)c1cc(O)c(-c2c(C)ccn3ccnc23)c(O)c1 [Compound 21, 2-(7-Methylimidazo[1,2-a]pyridin-8-yl)-5-(tert-pentyl)benzene-1,3-diol] | <33.0 |  | 
4 | CCCc1cc(O)c(-c2c(C)c(F)cn3ccnc23)c(O)c1 [Compound 11, 2-(6-Fluoro-7-methylimidazo[1,2-a]pyridin-8-yl)-5-propylbenzene-1,3-diol] |  |  | CC50 +/− SEM (C57BL/6J mice [4]; 5 mg/kg p.o., 15 min): 25.8 ± 1.9 mA; Change from vehicle (CC50) (C57BL/6J mice [4]; 5 mg/kg p.o., 15 min, vs HPMC vehicle): −3%; CC50 +/− SEM (C57BL/6J mice [4]; 25 mg/kg p.o., 15 min): 37.5 ± 2.2 mA; Change from vehicle (CC50) (C57BL/6J mice [4]; 25 mg/kg p.o., 15 min, vs HPMC vehicle): 42%***; CC50 +/− SEM (C57BL/6J mice [4]; 50 mg/kg p.o., 30 min): 100.8 ± 3.9 mA; Change from vehicle (CC50) (C57BL/6J mice [4]; 50 mg/kg p.o., 30 min, vs HPMC vehicle): 281%***; CC50 +/− SEM (C57BL/6J mice [4]; 100 mg/kg p.o., 30 min): 250.0 ± 3.7 mA; Change from vehicle (CC50) (C57BL/6J mice [4]; 100 mg/kg p.o., 30 min, vs HPMC vehicle): 843%***; Mean Forelimb Clonus +/− SEM (RjOrl: Swiss mice; 25 mg/kg p.o., 15 min): 0.85 ± 0.13; Change from vehicle (forelimb clonus) (RjOrl: Swiss mice; 25 mg/kg p.o., 15 min): −15%; Mean Forelimb Clonus +/− SEM (RjOrl: Swiss mice; 50 mg/kg p.o., 30 min): 0.55 ± 0.11; Change from vehicle (forelimb clonus) (RjOrl: Swiss mice; 50 mg/kg p.o., 30 min): −45%; Mean Forelimb Clonus +/− SEM (RjOrl: Swiss mice; 100 mg/kg p.o., 30 min): 0.80 ± 0.14; Change from vehicle (forelimb clonus) (RjOrl: Swiss mice; 100 mg/kg p.o., 30 min): −20%; Mean Forelimb Clonus +/− SEM (RjOrl: Swiss mice; 200 mg/kg p.o., 60 min): 0.75 ± 0.12; Change from vehicle (forelimb clonus) (RjOrl: Swiss mice; 200 mg/kg p.o., 60 min): −25%
5 | CCCc1cc(O)c(-c2c(Cl)ccn3ccnc23)c(O)c1 [Compound 6, 2-(7-Chloroimidazo[1,2-a]pyridin-8-yl)-5-propylbenzene-1,3-diol] | 49.9 ± 1.9 | 70 | 
6 | CCCc1cc(O)c(-c2c(C)ccn3cc(C(F)(F)F)nc23)c(O)c1 [Compound 15, 2-(2-Trifluoromethyl-7-methylimidazo[1,2-a]pyridin-8-yl)-5-propylbenzene-1,3-diol] | 35.3 ± 1.1 | 62 | 
7 | CCCc1cc(O)c(-c2c(C)ccn3cc(Cl)nc23)c(O)c1 [Compound 12, 2-(2-Chloro-7-methylimidazo[1,2-a]pyridin-8-yl)-5-propylbenzene-1,3-diol] | 57.3 ± 1.9 | 145 | 
8 | CCCc1cc(O)c(-c2c(C)c(C)cn3ccnc23)c(O)c1 [Compound 7, 2-(6,7-Dimethylimidazo[1,2-a]pyridin-8-yl)-5-propylbenzene-1,3-diol] | 53.5 ± 1.1 | 100 | 
9 | CCCc1cc(O)c(-c2c(F)ccn3ccnc23)c(O)c1 [Compound 8, 2-(7-Fluoroimidazo[1,2-a]pyridin-8-yl)-5-propylbenzene-1,3-diol] | 65.8 ± 1.9 | 145 | 
10 | Cc1c(Cl)cn2ccnc2c1-c1c(O)cc(Cl)cc1O [Compound 19, 5-Chloro-2-(6-chloro-7-methylimidazo[1,2-a]pyridin-8-yl)benzene-1,3-diol] |  |  | CC50 +/− SEM (C57BL/6J mice [3]; 50 mg/kg p.o.): 57.3 ± 1.9 mA; Change from vehicle (CC50) (C57BL/6J mice [3]; 50 mg/kg p.o.): 86%
11 | Cc1c(F)cn2ccnc2c1-c1c(O)cc(CCC(F)(F)F)cc1O [Compound 24, 2-(6-Fluoro-7-methylimidazo[1,2-a]pyridin-8-yl)-5-(3,3,3-trifluoropropyl)benzene-1,3-diol] |  |  | CC50 +/− SEM (C57BL/6J mice [3]; 25 mg/kg p.o.): 92.9 ± 1.1 mA; Change from vehicle (CC50) (C57BL/6J mice [3]; 25 mg/kg p.o.): 272%; CC50 +/− SEM (C57BL/6J mice [3]; 50 mg/kg p.o.): >131.0 mA; Change from vehicle (CC50) (C57BL/6J mice [3]; 50 mg/kg p.o.): >424%
12 | CCCc1cc(O)c(-c2c(C)ccn3c(C)cnc23)c(O)c1 [Compound 9, 2-(3,7-Dimethylimidazo[1,2-a]pyridin-8-yl)-5-propylbenzene-1,3-diol] | 58.6 ± 1.6 | 152 | 
13 | CCCc1cc(O)c(-c2c(C3CC3)ccn3ccnc23)c(O)c1 [Compound 18, 2-(7-Cyclopropylimidazo[1,2-a]pyridin-8-yl)-5-propylbenzene-1,3-diol] | 80.9 ± 1.1 | 216 | CC50 +/− SEM (C57BL/6J mice [3]; 50 mg/kg p.o.): 49.9 ± 1.9 mA; Change from vehicle (CC50) (C57BL/6J mice [3]; 50 mg/kg p.o.): 86%
14 | CCCCCc1cc(O)c(-c2c(C)ccn3ccnc23)c(O)c1 [Compound 13, 2-(7-Methylimidazo[1,2-a]pyridin-8-yl)-5-pentylbenzene-1,3-diol] | 92.9 ± 1.1 | 263 | 
15 | CCCc1cc(O)c(-c2c(C)c(C3CC3)cn3ccnc23)c(O)c1 [Compound 23, 2-(6-Cyclopropyl-7-methylimidazo[1,2-a]pyridin-8-yl)-5-propylbenzene-1,3-diol] | <33.0 | <52 | 
16 | Cc1ccn2ccnc2c1-c1c(O)cccc1O [Compound 14, 2-(7-Methylimidazo[1,2-a]pyridin-8-yl)benzene-1,3-diol] | <33.0 | <52 | 
17 | Cc1ccn2ccnc2c1-c1c(O)cc(C2CCCC2)cc1O [Compound 22, 5-Cyclopentyl-2-(7-methylimidazo[1,2-a]pyridin-8-yl)benzene-1,3-diol] | 57.3 ± 1.9 | 124 | 
18 | CN1C(=O)CN=C(c2ccccc2)c2cc(Cl)ccc21 [Diazepam, diazepam, reference compound] |  |  | Change from vehicle (CC50) (C57BL/6J mice [4]; 2.5 mg/kg i.p., 30 min, vs 1:1:18 ethanol:Kolliphor EL:saline vehicle): 406%^###; Change from vehicle (CC50) (C57BL/6J mice [4]; 2.5 mg/kg i.p., 30 min, vs 1:2:17 ethanol:Solutol:saline vehicle): 439%^###; Change from vehicle (CC50) (C57BL/6J mice [4]; 2.5 mg/kg i.p., 30 min, vs HPMC vehicle): 652%*** and 526%***; anticonvulsive properties in the MEST test (C57BL/6J mice [1]; mouse, in vivo): exhibit anticonvulsive properties; anticonvulsive properties in the MEST test (C57BL/6J mice [2]; mouse, in vivo): exhibit anticonvulsive properties
19 | NC(=O)N1c2ccccc2C=Cc2ccccc21 [carbamazepine] |  |  | protection from clonic convulsions, tonic convulsions and respiratory arrest (DBA/2 mice): protect DBA/2 mice from clonic convulsions, tonic convulsions and respiratory arrest
20 | CCCc1cc(O)c(-c2c(C(F)(F)F)ccn3ccnc23)c(O)c1 [Compound 5, 2-(7-trifluoromethylimidazo[1,2-a]pyridin-8-yl)-5-propylbenzene-1,3-diol] | <33.0 | <12 | 
21 | CCCc1cc(O)c(-c2c(C)ccn3c(Cl)cnc23)c(O)c1 [Compound 10, 2-(3-Chloro-7-methylimidazo[1,2-a]pyridin-8-yl)-5-propylbenzene-1,3-diol] | <33.0 ± 0.0 | <29 | 
22 | CCCc1cc(O)c(-c2cccn3ccnc23)c(O)c1 [Compound 1, 2-(imidazo[1,2-a]pyridin-8-yl)-5-propylbenzene-1,3-diol] | 92.9 ± 1.1 | 200 | 
23 | CCCCCc1cc(O)c(-c2c(C)c(Cl)cn3ccnc23)c(O)c1 [Compound 17, 2-(6-Chloro-7-methylimidazo[1,2-a]pyridin-8-yl)-5-pentylbenzene-1,3-diol] | 80.9 ± 10.8 | 231 | 
24 | CCCc1cc(O)c(-c2c(C)c(C(F)(F)F)cn3ccnc23)c(O)c1 [Compound 16, 2-(6-Trifluoromethyl-7-methylimidazo[1,2-a]pyridin-8-yl)-5-propylbenzene-1,3-diol] | <33.0 | <35 | 
25 | CCCc1cc(O)c(-c2c(C)ccn3cc(C)nc23)c(O)c1 [Compound 3, 2-(2,7-Dimethylimidazo[1,2-a]pyridin-8-yl)-5-propylbenzene-1,3-diol] | 35.3 ± 1.1 | 32 | 
